Source: US20100166789A1, “PROTEINS FOR USE IN DIAGNOSING AND TREATING INFECTION AND DISEASE” (The Regents of the University of Colorado, priority 2008, published 2010)
No end group written: not given here. *: point of attachment. Biotin = O=C1N[C@H]2[C@H](CS[C@H]2CCCCC(=O)*)N1

Experiments:
[1] = test system: cell surface bound CLIP on Raji and Daudi cells; assay: Competition of synthetic peptides with cell surface CLIP (Fitc anti-human CLIP); assay type: cell-based; settings: biotinylated peptides
From the text: Based on a computational model comparing the peptide content of TNP mixture and identifying those peptides that would have the likeliest ability to compete for the peptide/antigen binding site for MHC class II (human HLA-DR, DP, and DQ), several peptide candidates were synthesized and examined for activity. The purpose of the study was to determine if synthetic peptides can compete for binding with CLIP peptides as measured with either Fitc anti-human CLIP antibody or, comparatively in the case of biotinylated peptides, with Streptavidin.
Cell Culture Conditions: The Raji and Daudi cell lines were purchased from American Type Culture Collection, were thawed, and grown in RPMI 1640 medium supplemented with standard supplements, including 10% fetal calf serum, gentamycin, penicillin, streptomycin, sodium pyruvate, HEPES buffer, 1-glutamine, and 2-ME.
Protocol: Cells were plated into a 12 well plate with 3 mls total volume containing approximately 1.5×10^6/well for Daudi cells and 3.0×10^6/well for Raji cells. Treatment groups included no treatment as control; MKN 3 and MKN 5 at 50 microMolar final concentration based on the reported molarity of the synthesized compounds.
The cells were incubated at 37° C. in an atmosphere containing 5% CO2 and approximately 92% humidity. The cells were incubated for 4 and 24 hours. At each time point, the cells from that experimental time were harvested and stained for flow cytometric analysis of cell surface expression of CLIP (MHC Class II invariant peptide, human) by using the commercially available (Becton/Dickinson/PHarmingen) anti-human CLIP Fitc. Catalogue #555981 versus Streptavidin.
Harvested cells were stained using standard staining procedure that called for a 1:100 dilution of Fitc-anti-human CLIP or isotype control versus 1:200 dilution of the commercially prepared Streptavidin. Following staining on ice for 25 minutes, cells were washed with PBS/FCS and resuspended in 100 microliters and added to staining tubes containing 400 microliters of PBS. Samples were acquired and analyzed on a Coulter Excel Flow Cytometer.
In the Histogram analyses of FIGS. 4-6 the Y axis represents cell number of the 5000 live cells versus the X axis which is a reflection of relative Fitc fluorescence versus Streptavidin-PE (eBioscience, Cat. #12-4317) that will bind with high affinity to cell-bound biotinylated peptides. The distance between the histogram from the isotype control staining versus the histogram reflecting the specific stain and is a measure of level of cell surface CLIP or the biotinylated peptide when stained with Streptavidin on a population of live Raji or Daudi cells as indicated.

[2] = test system: cell surface CD74 on Raji or Daudi cells; settings: 24 and 48 hours; cited from earlier work
[3] = test system: cell surface CLIP on Raji or Daudi cells; settings: 24 and 48 hours; cited from earlier work
[4] = target: gp41 HIV-1 envelope protein (gp41 fragment) of Example 14 (HIV-1); assay: native gel electrophoresis, quantitative analysis

| Substance | Cell surface bound CLIP (Fitc-Anti-CLIP) ([1]; 4 hours) | Cell surface bound CLIP (Fitc-Anti-CLIP) ([1]; 24 hours) | Cell surface CD74 levels [2] | Cell surface CLIP levels [3] | binding stoichiometry (TNP to gp41) (gp41 per 1 TNP (ratio 1:0.8)) [4] |
| --- | --- | --- | --- | --- | --- |
| FRIMAVLAS [SGG GAN SGF RIM AVL ASG GQY, unmodified form is MKN.4] | small decreases | significant decreases |  |  |  |
| SGG GKA LVQ NDT LLQ VKG (Biotin-SGGGKALVQNDTLLQVKG) [TNP1] | small decreases | significant decreases |  |  |  |
| SGG GSK MRM ATP LLM QAL Y [MKN1] |  |  | alters | alters |  |
| thymus nuclear protein (TNP) extract from calf thymus |  |  |  |  | 0.8 |
